# Measurements as given in ChEMBL document CHEMBL1201862, “PubChem BioAssay data set” (2004).
#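 How tested: cells in 96-well plates exposed to compound for 48 hours at five concentrations. GI50: concentration for 50% inhibition of growth.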 The source made the active and inactive calls. Rule as the data show it: active = GI50 up to about 1.1 µM and inactive = higher.
# How the values were obtained:
# Assay in all cases: NCI tumour cell line growth inhibition, 48 h
# SK-MEL-28 = test system: SK-MEL-28
# RXF 393 = test system: RXF 393
# ACHN = test system: ACHN
# M19-MEL = test system: M19-MEL
# NCI-H460 = test system: NCI-H460
# OVCAR-5 = test system: OVCAR-5
# SF-295 = test system: SF-295
# UO-31 = test system: UO-31
# MOLT-4 = test system: MOLT-4
# HOP-62 = test system: HOP-62
# 786-0 = test system: 786-0
# OVCAR-4 = test system: OVCAR-4
# TK-10 = test system: TK-10
# EKVX = test system: EKVX
# OVCAR-3 = test system: OVCAR-3
# UACC-62 = test system: UACC-62
# LXFL 529 = test system: LXFL 529
# OVCAR-8 = test system: OVCAR-8
# XF498 = test system: XF498
# HCT-15 = test system: HCT-15
# DMS-114 = test system: DMS-114
# Malme-3M = test system: Malme-3M
# HT-29 = test system: HT-29
# SF-539 = test system: SF-539
# RPMI-8226 = test system: RPMI-8226
# SN12C = test system: SN12C
# U-251 = test system: U-251
# SK-OV-3 = test system: SK-OV-3
# UACC-257 = test system: UACC-257
# KM12 = test system: KM12
# K562 = test system: K562
# M14 = test system: M14
# SNB-75 = test system: SNB-75
# HCT-116 = test system: HCT-116
# SNB-19 = test system: SNB-19
# NCI-H23 = test system: NCI-H23
# A498 = test system: A498
# KM-20L2 = test system: KM-20L2
# LOX IMVI = test system: LOX IMVI
# DLD-1 = test system: DLD-1
# SR = test system: SR
# HCC 2998 = test system: HCC 2998
# SF-268 = test system: SF-268
# SNB-78 = test system: SNB-78
# CCRF-CEM = test system: CCRF-CEM
# NCI-H522 = test system: NCI-H522
# DMS-273 = test system: DMS-273
# A549 = test system: A549
# IGROV-1 = test system: IGROV-1
# NCI-H226 = test system: NCI-H226
# COLO 205 = test system: COLO 205
# SK-MEL-5 = test system: SK-MEL-5
# SW-620 = test system: SW-620
# CAKI-1 = test system: CAKI-1
# HOP-92 = test system: HOP-92
# HL-60 = test system: HL-60
# SK-MEL-2 = test system: SK-MEL-2
# HOP-18 = test system: HOP-18
compound,measurement,setting,value
OCC(O)C(OC1OC(CO)C(O)C(O)C1O)c1nn(-c2ccc(F)cc2)c2nc3cc(Cl)c(Cl)cc3cc12 (centres undefined),GI50,SK-MEL-28,> 100 µM (inactive)
same,GI50,RXF 393,> 100 µM (inactive)
same,GI50,ACHN,> 100 µM (inactive)
same,GI50,M19-MEL,> 100 µM (inactive)
same,GI50,NCI-H460,> 100 µM (inactive)
same,GI50,OVCAR-5,> 100 µM (inactive)
same,GI50,SF-295,> 100 µM (inactive)
same,GI50,UO-31,> 100 µM (inactive)
same,GI50,MOLT-4,> 100 µM (inactive)
same,GI50,HOP-62,> 100 µM (inactive)
same,GI50,786-0,> 100 µM (inactive)
same,GI50,OVCAR-4,> 100 µM (inactive)
same,GI50,TK-10,> 100 µM (inactive)
same,GI50,EKVX,> 100 µM (inactive)
same,GI50,OVCAR-3,> 100 µM (inactive)
same,GI50,UACC-62,> 100 µM (inactive)
same,GI50,LXFL 529,> 100 µM (inactive)
same,GI50,OVCAR-8,> 100 µM (inactive)
same,GI50,XF498,> 100 µM (inactive)
same,GI50,HCT-15,> 100 µM
same,GI50,DMS-114,> 100 µM (inactive)
same,GI50,Malme-3M,> 100 µM (inactive)
same,GI50,HT-29,> 100 µM (inactive)
same,GI50,SF-539,> 100 µM (inactive)
same,GI50,RPMI-8226,> 100 µM (inactive)
same,GI50,SN12C,> 100 µM (inactive)
same,GI50,U-251,> 100 µM (inactive)
same,GI50,SK-OV-3,> 100 µM (inactive)
same,GI50,UACC-257,> 100 µM (inactive)
same,GI50,KM12,> 100 µM (inactive)
same,GI50,K562,> 100 µM (inactive)
same,GI50,M14,> 100 µM (inactive)
same,GI50,SNB-75,> 100 µM (inactive)
same,GI50,HCT-116,> 100 µM (inactive)
same,GI50,SNB-19,> 100 µM (inactive)
same,GI50,NCI-H23,> 100 µM (inactive)
same,GI50,A498,> 100 µM (inactive)
same,GI50,KM-20L2,> 100 µM (inactive)
same,GI50,LOX IMVI,> 100 µM (inactive)
same,GI50,DLD-1,> 100 µM (inactive)
same,GI50,SR,> 100 µM (inactive)
same,GI50,HCC 2998,> 100 µM (inactive)
same,GI50,SF-268,> 100 µM (inactive)
same,GI50,SNB-78,> 100 µM (inactive)
same,GI50,CCRF-CEM,> 100 µM (inactive)
same,GI50,NCI-H522,> 100 µM (inactive)
CCN(CC)CSc1nc2ccccc2s1,GI50,SK-MEL-28,> 100 µM (inactive)
same,GI50,DMS-273,> 100 µM (inactive)
same,GI50,M19-MEL,> 100 µM (inactive)
same,GI50,A549,> 100 µM (inactive)
same,GI50,IGROV-1,> 100 µM (inactive)
same,GI50,NCI-H226,> 100 µM (inactive)
same,GI50,COLO 205,> 100 µM (inactive)
same,GI50,MOLT-4,> 100 µM (inactive)
same,GI50,OVCAR-4,> 100 µM (inactive)
same,GI50,TK-10,> 100 µM (inactive)
same,GI50,EKVX,> 100 µM (inactive)
same,GI50,OVCAR-3,> 100 µM (inactive)
same,GI50,UACC-62,> 100 µM (inactive)
same,GI50,LXFL 529,> 100 µM (inactive)
same,GI50,OVCAR-8,> 100 µM (inactive)
same,GI50,XF498,> 100 µM (inactive)
same,GI50,HCT-15,> 100 µM
same,GI50,DMS-114,> 100 µM (inactive)
same,GI50,HT-29,> 100 µM (inactive)
same,GI50,SF-539,> 100 µM (inactive)
same,GI50,RPMI-8226,> 100 µM (inactive)
same,GI50,SN12C,> 100 µM (inactive)
same,GI50,SK-MEL-5,> 100 µM (inactive)
same,GI50,SK-OV-3,> 100 µM (inactive)
same,GI50,UACC-257,> 100 µM (inactive)
same,GI50,SW-620,> 100 µM (inactive)
same,GI50,CAKI-1,> 100 µM (inactive)
same,GI50,KM12,> 100 µM (inactive)
same,GI50,K562,> 100 µM (inactive)
same,GI50,M14,> 100 µM (inactive)
same,GI50,SNB-75,> 100 µM (inactive)
same,GI50,NCI-H23,> 100 µM (inactive)
same,GI50,HOP-92,> 100 µM (inactive)
same,GI50,LOX IMVI,> 100 µM (inactive)
same,GI50,HCC 2998,> 100 µM (inactive)
same,GI50,HL-60,> 100 µM (inactive)
same,GI50,SNB-78,> 100 µM (inactive)
same,GI50,CCRF-CEM,> 100 µM (inactive)
same,GI50,NCI-H522,> 100 µM (inactive)
CC(=O)Nc1c(Nc2ccccc2)[nH]c(C)nc1=S,GI50,SK-MEL-28,> 100 µM (inactive)
same,GI50,RXF 393,> 100 µM (inactive)
same,GI50,ACHN,> 100 µM (inactive)
same,GI50,DMS-273,> 100 µM (inactive)
same,GI50,A549,> 100 µM (inactive)
same,GI50,NCI-H460,> 100 µM (inactive)
same,GI50,IGROV-1,> 100 µM (inactive)
same,GI50,OVCAR-5,> 100 µM (inactive)
same,GI50,COLO 205,> 100 µM (inactive)
same,GI50,SF-295,> 100 µM (inactive)
same,GI50,UO-31,> 100 µM (inactive)
same,GI50,SK-MEL-2,> 100 µM (inactive)
same,GI50,MOLT-4,> 100 µM (inactive)
same,GI50,HOP-62,> 100 µM (inactive)
same,GI50,786-0,> 100 µM (inactive)
same,GI50,OVCAR-4,> 100 µM (inactive)
same,GI50,TK-10,> 100 µM (inactive)
same,GI50,EKVX,> 100 µM (inactive)
same,GI50,OVCAR-3,> 100 µM (inactive)
same,GI50,UACC-62,> 100 µM (inactive)
same,GI50,LXFL 529,> 100 µM (inactive)
same,GI50,OVCAR-8,> 100 µM (inactive)
same,GI50,XF498,> 100 µM (inactive)
same,GI50,HCT-15,> 100 µM
same,GI50,DMS-114,> 100 µM (inactive)
same,GI50,Malme-3M,> 100 µM (inactive)
same,GI50,RPMI-8226,> 100 µM (inactive)
same,GI50,SN12C,> 100 µM (inactive)
same,GI50,SK-MEL-5,> 100 µM (inactive)
same,GI50,SK-OV-3,> 100 µM (inactive)
same,GI50,UACC-257,> 100 µM (inactive)
same,GI50,SW-620,> 100 µM (inactive)
same,GI50,CAKI-1,> 100 µM (inactive)
same,GI50,KM12,> 100 µM (inactive)
same,GI50,K562,> 100 µM (inactive)
same,GI50,M14,> 100 µM (inactive)
same,GI50,SNB-75,92.9 µM (inactive)
same,GI50,SNB-19,> 100 µM (inactive)
same,GI50,NCI-H23,> 100 µM (inactive)
same,GI50,HOP-92,> 100 µM (inactive)
same,GI50,KM-20L2,> 100 µM (inactive)
same,GI50,LOX IMVI,> 100 µM (inactive)
same,GI50,DLD-1,> 100 µM (inactive)
same,GI50,HCC 2998,> 100 µM (inactive)
same,GI50,HL-60,> 100 µM (inactive)
same,GI50,SF-268,> 100 µM (inactive)
same,GI50,SNB-78,> 100 µM (inactive)
same,GI50,CCRF-CEM,> 100 µM (inactive)
same,GI50,NCI-H522,> 100 µM (inactive)
CCOc1cccc2sc(N)nc12,GI50,SK-MEL-28,> 100 µM (inactive)
same,GI50,RXF 393,> 100 µM (inactive)
same,GI50,ACHN,> 100 µM (inactive)
same,GI50,DMS-273,> 100 µM (inactive)
same,GI50,M19-MEL,> 100 µM (inactive)
same,GI50,A549,> 100 µM (inactive)
same,GI50,NCI-H460,> 100 µM (inactive)
same,GI50,IGROV-1,> 100 µM (inactive)
same,GI50,NCI-H226,> 100 µM (inactive)
same,GI50,OVCAR-5,> 100 µM (inactive)
same,GI50,COLO 205,> 100 µM (inactive)
same,GI50,SF-295,> 100 µM (inactive)
same,GI50,UO-31,56.1 µM (inactive)
same,GI50,SK-MEL-2,> 100 µM (inactive)
same,GI50,MOLT-4,> 100 µM (inactive)
same,GI50,HOP-62,> 100 µM (inactive)
same,GI50,786-0,> 100 µM (inactive)
same,GI50,OVCAR-4,> 100 µM (inactive)
same,GI50,TK-10,> 100 µM (inactive)
same,GI50,EKVX,49 µM (inactive)
same,GI50,OVCAR-3,> 100 µM (inactive)
same,GI50,UACC-62,> 100 µM (inactive)
same,GI50,LXFL 529,> 100 µM (inactive)
same,GI50,OVCAR-8,> 100 µM (inactive)
same,GI50,HCT-15,> 100 µM
same,GI50,DMS-114,> 100 µM (inactive)
same,GI50,Malme-3M,> 100 µM (inactive)
same,GI50,HT-29,> 100 µM (inactive)
same,GI50,SF-539,> 100 µM (inactive)
same,GI50,RPMI-8226,> 100 µM (inactive)
same,GI50,SN12C,> 100 µM (inactive)
same,GI50,SK-MEL-5,> 100 µM (inactive)
same,GI50,U-251,> 100 µM (inactive)
same,GI50,SK-OV-3,> 100 µM (inactive)
same,GI50,UACC-257,> 100 µM (inactive)
same,GI50,SW-620,> 100 µM (inactive)
same,GI50,CAKI-1,> 100 µM (inactive)
same,GI50,HOP-18,> 100 µM (inactive)
same,GI50,KM12,> 100 µM (inactive)
same,GI50,K562,> 100 µM (inactive)
same,GI50,M14,> 100 µM (inactive)
same,GI50,SNB-75,> 100 µM (inactive)
same,GI50,HCT-116,> 100 µM (inactive)
same,GI50,SNB-19,> 100 µM (inactive)
same,GI50,NCI-H23,> 100 µM (inactive)
same,GI50,A498,> 100 µM (inactive)
same,GI50,HOP-92,> 100 µM (inactive)
same,GI50,KM-20L2,> 100 µM (inactive)
same,GI50,LOX IMVI,> 100 µM (inactive)
same,GI50,DLD-1,> 100 µM (inactive)
same,GI50,HCC 2998,> 100 µM (inactive)
same,GI50,HL-60,> 100 µM (inactive)
same,GI50,SF-268,> 100 µM (inactive)
same,GI50,SNB-78,> 100 µM (inactive)
same,GI50,NCI-H522,> 100 µM (inactive)
